# Reference: ChEMBL document CHEMBL1201862, “PubChem BioAssay data set” (2004)
# Calls of active or inactive are those of the source.
# How the values were obtained:
# [1] = biological target: T1, Short transient receptor potential channel 4 (Mus musculus, UniProt Q9QUQ5); test: block of DAMGO-driven TRPC4 calcium entry – cell-based, HEK293 TRPC4/mu-opioid, Fluo-4 calcium, dose response (AID 434942); format: functional;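 also: potency of inhibitors blocking the TRPC4 calcium response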
# T1 sequence (Q9QUQ5 whole entry): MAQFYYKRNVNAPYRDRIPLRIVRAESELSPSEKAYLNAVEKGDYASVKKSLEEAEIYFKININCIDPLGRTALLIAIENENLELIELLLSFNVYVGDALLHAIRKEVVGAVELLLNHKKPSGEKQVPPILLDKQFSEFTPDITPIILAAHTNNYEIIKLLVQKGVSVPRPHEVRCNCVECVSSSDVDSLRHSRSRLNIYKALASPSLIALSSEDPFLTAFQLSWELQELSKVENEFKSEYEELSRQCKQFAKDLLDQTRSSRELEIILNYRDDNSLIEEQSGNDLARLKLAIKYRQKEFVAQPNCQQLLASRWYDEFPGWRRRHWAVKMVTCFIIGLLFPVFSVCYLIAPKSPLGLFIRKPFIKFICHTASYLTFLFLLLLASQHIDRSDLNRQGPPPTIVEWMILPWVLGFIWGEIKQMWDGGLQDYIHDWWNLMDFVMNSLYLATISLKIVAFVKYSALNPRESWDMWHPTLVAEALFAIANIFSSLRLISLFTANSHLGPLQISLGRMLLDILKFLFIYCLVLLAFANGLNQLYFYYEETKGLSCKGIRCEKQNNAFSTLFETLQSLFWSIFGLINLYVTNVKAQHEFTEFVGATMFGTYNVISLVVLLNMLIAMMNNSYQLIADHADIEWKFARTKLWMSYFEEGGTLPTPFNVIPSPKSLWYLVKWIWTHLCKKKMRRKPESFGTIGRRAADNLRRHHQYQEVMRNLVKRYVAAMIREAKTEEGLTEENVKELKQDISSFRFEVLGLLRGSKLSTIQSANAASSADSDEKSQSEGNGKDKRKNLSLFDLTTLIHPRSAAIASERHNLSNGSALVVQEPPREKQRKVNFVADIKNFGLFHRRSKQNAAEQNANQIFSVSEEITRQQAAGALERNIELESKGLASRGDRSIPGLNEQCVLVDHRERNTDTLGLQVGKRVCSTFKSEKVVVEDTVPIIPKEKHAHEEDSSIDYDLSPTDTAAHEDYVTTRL
# [2] = HEK-293T viability loss after treatment – luminescence, T-cell screen hits, cytotoxicity control for TCR NF-kB inhibitor project, dose response (AID 489026); format: functional, cell-based;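 also: cells exposed to compound about 14 hours before the viability readout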
# [3] = biological target: T2, DNA repair and recombination protein RAD54-like (Homo sapiens, UniProt Q92698); test: RAD54 Holliday junction migration blockers – biochemical, fluorescence, cherry-picked samples, dose series, confirmation (AID 651657); format: functional
# T2 sequence (Q92698 whole entry): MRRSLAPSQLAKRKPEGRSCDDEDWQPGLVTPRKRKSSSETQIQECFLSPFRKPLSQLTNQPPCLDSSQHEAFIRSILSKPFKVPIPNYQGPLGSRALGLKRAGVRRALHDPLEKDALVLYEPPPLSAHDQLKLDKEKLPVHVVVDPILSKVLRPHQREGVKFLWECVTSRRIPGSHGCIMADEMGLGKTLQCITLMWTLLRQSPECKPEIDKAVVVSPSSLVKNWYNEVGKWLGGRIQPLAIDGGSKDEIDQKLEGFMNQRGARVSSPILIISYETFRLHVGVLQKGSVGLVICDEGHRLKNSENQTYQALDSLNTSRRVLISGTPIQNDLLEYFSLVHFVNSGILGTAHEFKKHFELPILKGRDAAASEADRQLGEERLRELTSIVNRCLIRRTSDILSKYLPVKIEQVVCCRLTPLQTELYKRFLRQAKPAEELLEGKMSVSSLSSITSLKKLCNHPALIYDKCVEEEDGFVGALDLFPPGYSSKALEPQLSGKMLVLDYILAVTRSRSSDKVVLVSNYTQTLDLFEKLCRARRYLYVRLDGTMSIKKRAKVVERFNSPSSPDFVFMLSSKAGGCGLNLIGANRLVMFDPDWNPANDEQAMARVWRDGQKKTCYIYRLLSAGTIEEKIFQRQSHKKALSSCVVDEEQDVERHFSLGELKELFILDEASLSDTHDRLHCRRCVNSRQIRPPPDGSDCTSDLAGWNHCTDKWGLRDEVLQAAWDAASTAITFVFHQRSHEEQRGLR
# [4] = system: INS1; test: INS-1E survival protection against cytokine death – cell-based, luminescence, retest, dose response (AID 449756); format: functional; conditions: Rattus norvegicus, INS1;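 also: cell death triggered by IL-1 beta plus TNF-alpha plus IFN-gamma mixture; protective hits raise ATP signal compared with cytokine alone wells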
# [5] = loss of viability in HepG2 cells – cell-based, CellTiter-Glo, cherry-picked, cytotoxicity control for Shn3 inhibitor project, dose response (AID 624134); format: functional
# [6] = reduction of Shn3 3'UTR-driven luciferase in osteoblasts – cell-based, Clone20 osteoblasts, firefly luciferase, cherry-picked, dose response (AID 624132); format: functional;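 also: firefly luciferase luminescence from reporter carrying the Shn3 3'UTR in osteoblasts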
# [7] = non-specific 3'UTR reporter inhibition in Clone20-Shn3RL – cell-based, Renilla luciferase, cherry-picked, counter-screen for Shn3 inhibitor project, dose response (AID 624133); format: functional
# [8] = biological target: T3, Microphthalmia-associated transcription factor (Homo sapiens, UniProt O75030); test: reducers of TRPM1 reporter luminescence, concentration series – cell-based, SK-MEL-5, cherry-picked, set 3, MITF inhibitor project, dose response (AID 493073); format: functional;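 also: SK-MEL-5 melanoma cells with luciferase driven by the MITF target TRPM1 promoter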
# T3 sequence (O75030 whole entry): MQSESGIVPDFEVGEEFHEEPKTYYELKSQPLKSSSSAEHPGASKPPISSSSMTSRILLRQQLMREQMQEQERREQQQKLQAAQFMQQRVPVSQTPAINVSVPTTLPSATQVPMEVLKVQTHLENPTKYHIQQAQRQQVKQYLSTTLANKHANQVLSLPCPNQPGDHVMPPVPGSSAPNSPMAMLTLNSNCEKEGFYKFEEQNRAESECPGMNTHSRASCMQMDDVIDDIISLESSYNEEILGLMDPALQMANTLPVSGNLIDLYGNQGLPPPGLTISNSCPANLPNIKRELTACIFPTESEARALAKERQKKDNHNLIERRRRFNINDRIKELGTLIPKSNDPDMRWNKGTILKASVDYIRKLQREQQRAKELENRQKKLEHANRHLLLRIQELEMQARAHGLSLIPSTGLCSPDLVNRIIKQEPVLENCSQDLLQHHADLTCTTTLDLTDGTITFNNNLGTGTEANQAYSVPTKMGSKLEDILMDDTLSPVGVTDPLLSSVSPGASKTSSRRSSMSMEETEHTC
# [9] = general mammalian cell viability loss – inhibitor set, cherry-pick, set 2, cytotoxicity control for miR-122 modulator project, dose response (AID 720697); format: functional, cell-based
# [10] = biological target: T4, DNA repair protein RAD52 homolog (Homo sapiens, UniProt P43351); format: functional, biochemical
# T4 sequence (P43351 whole entry): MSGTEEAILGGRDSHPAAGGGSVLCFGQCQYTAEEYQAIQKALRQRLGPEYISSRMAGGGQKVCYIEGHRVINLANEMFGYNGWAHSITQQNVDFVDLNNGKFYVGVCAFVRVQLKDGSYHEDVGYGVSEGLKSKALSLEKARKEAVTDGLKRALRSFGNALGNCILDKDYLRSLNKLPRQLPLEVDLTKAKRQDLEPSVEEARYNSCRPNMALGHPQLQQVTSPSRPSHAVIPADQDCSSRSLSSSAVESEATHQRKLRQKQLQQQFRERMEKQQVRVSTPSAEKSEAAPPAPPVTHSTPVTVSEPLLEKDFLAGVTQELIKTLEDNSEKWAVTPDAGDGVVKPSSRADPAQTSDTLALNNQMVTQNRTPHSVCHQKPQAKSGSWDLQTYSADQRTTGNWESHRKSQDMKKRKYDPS
# [11] = intracellular Trypanosoma cruzi inhibitors in host cells – cell-based, plate reader, cherry-pick samples, set 3, dose response (AID 651818); format: functional;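 also: compounds incubated with infected cells for about four days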
# [12] = DRD fibroblast viability loss – cell-based, non-viral oncogenic, luminescence, dose response (AID 1934); format: functional; conditions: Homo sapiens
# [13] = system: BJ; test: BJ-TERT fibroblast viability loss – cell-based, RAS-independent, luminescence, dose response (AID 1933); format: functional; conditions: Homo sapiens
# [14] = alpha-synuclein stem-loop luciferase translation blockers – H4 neuroglioma cells, luminescence, confirmation (AID 1988); format: functional, cell-based
# [15] = system: BJ; test: cells; format: functional, cell-based; conditions: Homo sapiens
# [16] = biological target: Nonstructural protein 1 (Influenza A virus, UniProt Q194T2); format: functional, Influenza A virus (A/California/07/2009(H1N1))
# Nonstructural protein 1, sequence (Q194T2 whole entry): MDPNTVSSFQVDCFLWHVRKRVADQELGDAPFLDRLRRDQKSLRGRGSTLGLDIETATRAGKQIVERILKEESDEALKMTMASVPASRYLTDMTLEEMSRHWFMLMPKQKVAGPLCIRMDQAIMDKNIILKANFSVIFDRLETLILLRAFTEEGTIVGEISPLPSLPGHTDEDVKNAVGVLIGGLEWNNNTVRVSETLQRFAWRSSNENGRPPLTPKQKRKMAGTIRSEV
# [17] = luciferase reporter signal suppression in cells – H4 neuroglioma cells, luminescence, dose response (AID 1990); format: functional, cell-based
# [18] = NIH3T3 cell viability loss – ATP luminescence, mouse fibroblasts, counter-screen, dose response (AID 2010); format: functional, cell-based;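 also: cells exposed to compound for about 90 hours before reading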
# [19] = Luminescence Cell-Based Dose Response HTS to Identify Inhibitors of 5'UTR Stem-Loop Driven Prion Protein mRNA Translation in H4 Neuroglioblastoma Cells. [Related pubchem assays: 1827 (Project Summary), 1813 (Primary HTS)]; format: functional
# [20] = Trypanosoma cruzi growth suppression in host cells – NIH3T3 host cells, beta-gal luminescence, confirmation (AID 2044); format: functional, cell-based;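 also: intracellular parasites grown in NIH/3T3 mouse fibroblasts as host cells; luminescent beta-galactosidase reporter signal from transgenic T. cruzi replicating inside host cells; inhibitors lower the luminescence signal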
# [21] = system: BJ; test: BJ-TERT-LT-ST fibroblast viability loss – cell-based, RAS-independent, luminescence, dose response (AID 1935); format: functional; conditions: Homo sapiens;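 also: BJ fibroblasts immortalized with TERT plus LT and ST oncogenes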
smiles,measurement,setting,value
O=C(CN1CCCCCC1)N1c2ccccc2Sc2ccccc21,EC50,[1],1.68 µM (active)
c1ccc(Cn2c(NCc3ccco3)nc3ccccc32)cc1,EC50,[1],0.596 µM (active)
COc1cc(C2=NOC(C(=O)NCc3ccc(F)cc3)C2)cc(OC)c1OC (stereo not drawn),IC50,[2],> 80 µM (inactive)
Cc1ccc2oc(=O)c3cc(C(=O)NCCCN4C(C)CCCC4C)sc3c2c1 (stereo not drawn),AC50,[3],100 µM (inactive)
COc1ccc(CC(=O)Nc2nc(-c3ccc(F)c(F)c3)cs2)cc1OC,AC50,[4],6.65 µM (active)
same,IC50,[2],51.3 µM (inactive)
COc1ccc(CN(C(=O)c2snc(C(N)=O)c2N)C(CC(C)C)C(=O)NC2CCCCC2)cc1 (stereo not drawn),EC50,[1],1.33 µM (active)
CCn1c(=N)c(C(=O)NC)cc2c(=O)n3cccc(C)c3nc21,AC50,[3],19.9 µM (active)
Cc1ccc(N(C)S(=O)(=O)c2ccc(-c3cnc(C4CC4)o3)cc2)cc1,IC50,[2],> 80 µM (inactive)
O=C1CCCN2N=C(SCC(=O)Nc3cccc(C(F)(F)F)c3)SC2=N1,AC50,[5],5.46 µM (active)
same,AC50,[6],4.37 µM (active)
same,AC50,[7],2.95 µM (active)
Cc1ccc(C(O)(c2ccc(C)c(C)c2)C2CN3CCC2CC3)cc1C (stereo not drawn),AC50,[8],10.1 µM (active)
Cc1cccc(NS(=O)(=O)c2ccc(-c3cnc(C4CC4)o3)cc2)c1,IC50,[2],67 µM (inactive)
COc1cc2nc(C3CCC3)n(NC(=O)C3CCCC(OC)C3)c(=O)c2cc1OC (stereo not drawn),AC50,[9],6.2 µM (active)
CCOC(=O)c1[nH]c(C)c(C(=O)OCC(=O)NC(C)c2ccc(F)cc2)c1C (stereo not drawn),IC50,[2],> 80 µM (inactive)
CCN1CCN(c2nc(N)c([N+](=O)[O-])c(Nc3cccc(C)c3)n2)CC1,AC50,[3],12.4 µM (active)
CCOC(=O)C1(Cc2ccccc2C)CCCN(Cc2ccc(NC(C)=O)cc2)C1 (stereo not drawn),EC50,[1],3.35 µM (active)
COc1ccc(OC)c(CN2CCCC(C(=O)c3sccc3C)C2)c1 (stereo not drawn),EC50,[1],1.88 µM (active)
COc1cccc(-c2cc3nc(NCCCN(C)C)n(C)c(=O)c3s2)c1,AC50,[10],7.04 µM (active)
same,AC50,[3],30.6 µM (active)
C[C@@H]1CCCCO[C@H](CN(C)C(=O)Nc2ccc(C(F)(F)F)cc2)[C@@H](C)CN([C@H](C)CO)C(=O)c2cc(NC(=O)Nc3ccc(F)cc3)ccc2O1,AC50,[11],1.35 µM (active)
C[C@@H]1CCCCO[C@H](CN(C)Cc2ccc(C(F)(F)F)cc2)[C@@H](C)CN([C@H](C)CO)C(=O)c2cc(NS(=O)(=O)c3ccc(Cl)cc3)ccc2O1,AC50,[11],3.33 µM (active)
Cc1cc(C(=O)Nc2cccc3c2O[C@H](CN(C)Cc2ccc(C(=O)Nc4ccccc4N)cc2)[C@H](C)CN([C@H](C)CO)C3=O)n(C)n1,AC50,[11],3.15 µM (active)
C[C@H]1CN([C@@H](C)CO)C(=O)c2cc(NC(=O)Nc3ccccc3)ccc2O[C@H]1CN(C)Cc1ccc(C(=O)Nc2ccccc2N)cc1,AC50,[11],4.89 µM (active)
C[C@H](CO)N1C[C@H](C)[C@H](CN(C)C(=O)Nc2cccc3ccccc23)Oc2c(NC(=O)Nc3ccc4c(c3)OCO4)cccc2C1=O,AC50,[11],11.9 µM (active)
C[C@@H]1CCCCO[C@H](CN(C)Cc2ccc(Cl)c(Cl)c2)[C@@H](C)CN([C@H](C)CO)C(=O)c2cc(NC(=O)Nc3ccccc3)ccc2O1,AC50,[11],3.65 µM (active)
CCOC(=O)c1[nH]c(C=O)c(C(=O)OCC)c1C,IC50,[2],> 80 µM (inactive)
Cc1cc(C(=O)Nc2ccc3c(c2)C(=O)N(C)[C@H]2CC[C@H](CC(=O)N[C@@H](C)c4ccccc4)O[C@H]2CO3)no1,AC50,[9],0.478 µM (active)
C/C=C/c1ccc([C@H]2[C@@H](CO)N[C@@H]2CN(C(=O)c2ccccc2F)C(C)C)cc1,AC50,[9],2.45 µM (active)
CN1C[C@H]2[C@@H](c3ccccc31)[C@@H](CO)N2C(=O)C1CCOCC1,AC50,[9],< 0.195 µM (active)
C/C(=N\NC(=O)c1ccccc1Cl)c1ccccn1,EC50,[12],17.5 µM (active)
same,EC50,[13],14.8 µM (active)
same,AC50,[4],1.4 µM (active)
same,EC50,[14],5.67 µM (active)
same,EC50,[15],13.5 µM (active)
same,IC50,[16],11.1 µM (active)
same,EC50,[17],9.67 µM (active)
same,EC50,[18],5.56 µM (active)
same,EC50,[19],6.44 µM (active)
same,EC50,[20],1.5 µM (active)
same,EC50,[21],12.2 µM (active)
COc1cc(OC)c(/C=C2\C(=O)Nc3ccccc32)c(OC)c1,IC50,[2],69.6 µM (inactive)
